In article PMC6289299 (Inorganic chemistry, 2018):

Legend:
physchem [1] = type: physicochemical
physchem [2] = type: physicochemical; remark: listed apart in the source
[3] = target: human carbonic anhydrase II (hCAII) (Homo sapiens, UniProt P00918); experiment: hCAII assay; type: biochemical

O=C(O)c1ccccn1 [Compound 1, picolinic acid]
pKa (physchem [1]): < 1.5
logP (physchem [2]): < -2
logD (physchem [2]; pH 7.4): < -2
IC50 [3]: > 1000 µM
